# According to ChEMBL document CHEMBL1152487, “3D-QSAR studies of HDACs inhibitors using pharmacophore-based alignment” (Eur J Med Chem, 2009):
# Test: Inhibition of HDAC
SMILES,IC50 [µM],pIC50
O=C(CCCCCN1C(=O)c2ccccc2C1=O)NO,0.103,6.99
O=C(CCc1ccc(NS(=O)(=O)c2ccccc2)cc1)NO,0.1,7
Cc1ccc(S(=O)(=O)Nc2ccc(/C=C/C(=O)NO)cc2)cc1,0.3,6.52
O=C(CCCCCCC(=O)c1ccc(N2CCN(c3ccccc3)CC2)cc1)NO,,8.35
O=C(CCCCCCCc1ccc2ccccc2c1)NO,,7.6
O=C(CCCCCCC(=O)c1cccnc1)NO,,6.82
COc1ccc(S(=O)(=O)Nc2ccc(/C=C/C(=O)NO)cc2)cc1,0.06,7.22
O=C(Cc1ccc(NS(=O)(=O)c2ccccc2)cc1)NO,1,6
O=C(CCCCCCC(=O)c1ccc(C(F)(F)F)cc1)NO,,7.35
O=C(CCCCC/C=C/c1ccc2ccccc2c1)NO,,8.22

# More lines, now with the values ahead:
IC50 [µM],pIC50,SMILES
11.2,4.95,CC(=O)c1cc(/C=C/C(=O)NO)n(C)c1
12.2,4.92,Cn1cc(C=O)cc1/C=C/C(=O)NO
52.6,4.28,Cn1cc(C=O)cc1CCC(=O)NO
9.65,5.01,Cn1cc(C(=O)Cl)cc1/C=C/C(=O)NO
0.1,7,O=C(/C=C/c1ccc(NS(=O)(=O)c2ccc(Cl)c(Cl)c2)cc1)NO
0.3,6.52,O=C(/C=C/c1ccc(NS(=O)(=O)c2ccc(Cl)cc2Cl)cc1)NO
